Source: patent US11147272B2, “Pyridone compounds and agricultural and horticultural fungicides comprising the same as active ingredients” (MITSUI CHEMICALS AGRO, INC., priority 2017, dated 2021)

How the values were obtained:
Puccinia recondita = test: Test Example E: Brown rust on wheat; format: in vivo; settings: 250 ppm drug solution sprayed on test plant
Botrytis cinerea = test: Test Example B: Gray mold on tomato; settings: 250 ppm drug solution sprayed on test plant
Phytophthora infestans = test: whole plant or invertebrate; format: in vivo; settings: 250 ppm drug solution sprayed on test plant
[1] = system: Blumeria graminis f. sp. hordei; test: Test Example D: Powdery mildew on barley; settings: 250 ppm drug solution sprayed on test plant
[2] = system: Colletotrichum orbiculare; test: Test Example H: Anthracnose on cucumber; settings: 250 ppm drug solution sprayed (2.5 ml/pot), cucumber Sagami Hanjiro, 6 to 10 days after inoculation
Plasmopara viticola = test: Test Example G: Downy mildew on vine; settings: 250 ppm drug solution sprayed (2.5 ml/pot), grape Neomuscat, 7 to 10 days after inoculation
Magnaporthe grisea = test: whole plant or invertebrate; format: in vivo; settings: 250 ppm drug solution sprayed on test plant
Alternaia brassicicola = test: Test Example C: Alternaria sooty spot on cabbage; format: in vivo; settings: 250 ppm drug solution sprayed on test plant
Description: Seeds of a test plant (cabbage variety: Shikidori) were planted and cultivated until the cotyledons extended.
<Control Value> Control value=100{1−(n/3)}

| Structure (SMILES) | Test E control value (Puccinia recondita) | Test B control value (Botrytis cinerea) | Test F control value (Phytophthora infestans) | Test D control value [1] | Test H control value [2] | Test G control value (Plasmopara viticola) | Test A control value (Magnaporthe grisea) | Test C control value (Alternaia brassicicola) |
| --- | --- | --- | --- | --- | --- | --- | --- | --- |
| CCCc1cc(Br)c(=O)n(C)c1-c1ccc(OC)cc1C [compound 431] | H (more than 50% control value) | H (more than 50% control value) | L (50% or less control value) | H (more than 50% control value) | H (more than 50% control value) | H (more than 50% control value) | H (more than 50% control value) | H (more than 50% control value) |
| COC(C)(c1cc(Br)c(=O)n(C)c1-c1c(F)cc(F)cc1F)C(C)C (centres unmarked) [compound 432] | H (more than 50% control value) | H (more than 50% control value) | L (50% or less control value) | H (more than 50% control value) | H (more than 50% control value) | L (50% or less control value) | H (more than 50% control value) | H (more than 50% control value) |
| CCCc1cc(Cl)c(=O)n(C)c1-c1ccc(OC)cc1C [compound 433] | H (more than 50% control value) | H (more than 50% control value) | L (50% or less control value) | H (more than 50% control value) | H (more than 50% control value) | H (more than 50% control value) | L (50% or less control value) | H (more than 50% control value) |
| CCCc1cc(I)c(=O)n(CC)c1-c1c(F)cc(F)cc1F [compound 434] | H (more than 50% control value) | H (more than 50% control value) | L (50% or less control value) | H (more than 50% control value) | H (more than 50% control value) | L (50% or less control value) | H (more than 50% control value) | H (more than 50% control value) |
| CCCC1=C(c2c(F)cc(F)cc2F)N(CCC)C(=O)CC1 [compound 435] | L (50% or less control value) | L (50% or less control value) | H (more than 50% control value) | L (50% or less control value) | L (50% or less control value) | L (50% or less control value) | L (50% or less control value) | H (more than 50% control value) |
| CCCc1cc(I)c(=O)n(CC)c1-c1c(F)cc(OC)cc1F [compound 436] | H (more than 50% control value) | H (more than 50% control value) | L (50% or less control value) | H (more than 50% control value) | H (more than 50% control value) | L (50% or less control value) | H (more than 50% control value) | H (more than 50% control value) |
| CCCc1ccc(=O)n(CCC)c1-c1c(F)cc(F)cc1F [compound 437] | L (50% or less control value) | L (50% or less control value) | L (50% or less control value) | H (more than 50% control value) | H (more than 50% control value) | L (50% or less control value) | L (50% or less control value) | L (50% or less control value) |
